Measured values as given in patent publication US20100197743A1, “Use of sulphur-containing heteroaromatic acid analogues” (Bayer CropScience AG, priority 2008, published 2010).

System: black Sigatoka fungus Mycosphaerella figiensis
Experiment: Field study of black Sigatoka control on Cavendish bananas (Stover method)
Assay type: in vivo, Mycosphaerella figiensis on Cavendish bananas
Set-up: key to YLI last determ. (youngest infected leaf): leaf number of youngest leaf showing Sigatoka symptoms; YLI AUDPC / SEV AUDPC: unit not given here
Details: for SEV last determ. (severity of the disease) / YLI last determ. (youngest infected leaf): foliar spray, eight applications at seven-day intervals, last determination Oct. 23, 2008; for SEV ABBOTT: % severity calculated as described by ABBOTT; for SEV AUDPC / YLI AUDPC: area under the disease progress curve over the complete study period
Excerpt: If the banana disease caused by the black Sigatoka fungus Mycosphaerella figiensis is not controlled, the latter can destroy the banana leaves and greatly reduce the yield. To control Sigatoka, commercially available fungicides are used which are usually applied to banana plants by foliar application.
It was intended to determine whether isotianil is capable of controlling the black Sigatoka infection with reference to studies carried out on Cavendish bananas in Devao del Norte in the southern Philippines.
Compound I-2 as defined above was formulated as a suspension concentrate formulation (200 SC) with Banol mineral oil and water in a ratio of 0.5 l of compound I-2 (200 SC), 5 l of oil and 74 l of water. The emulsifier used was 0.05 l of Lutensol so as to maintain the oil/water mixture as a stable emulsion.
After the formulation procedure, the mixture was sprayed onto banana trees using engine-driven spray mist applicators which applied a total volume of 80 l/ha.
This was followed by eight applications at seven-day intervals between Aug. 28 and Oct. 16, 2008. The isotianil application rate was 50, 75 and 100 g of a.i./ha, respectively.
For comparison with the isotianil plots, one plot was left untreated, and a further plot was sprayed with Sico (difenconazole 250 SC), a commercially available fungicide which is used for controlling black Sigatoka. Sico was sprayed together with Banol oil and Lutensol at an application rate of 100 g of a.i./ha, as above.
Each plot consisted of two banana plants at the BBCH growth stage 1056-1100. Each treatment consisted of three replications.
After the application, the disease level on the banana leaves was determined according to several parameters which are defined by the “Stover method” (Stover, 1971 R. H. Stover, A proposed international scale for estimating intensity of banana leaf spot, Tropical Agriculture).
Youngest infected leaf (YLI): This parameter records which leaf of the plant was the youngest leaf to show initial symptoms of Sigatoka infection. This is important since this has a direct relationship with the degree of infection, since the youngest leaves are infected last. Under the test conditions, the plants produce approximately one new leaf per week.
The severity of the disease (SEV) describes the direct percentage of visual disease on the plant.
The youngest infected leaf and the severity of the disease were determined weekly after the first application. The data hereinbelow describe the results of the last determination measured at the end of the experiment, on Oct. 23, 2008. After the weekly determination, moreover, the data were compiled in the form of a graph, and the area under the disease progress curve (AUDPC) was calculated over the complete study period and is listed hereinbelow. Moreover, % severity was calculated as described by ABBOTT.

Compound: N#Cc1ccccc1NC(=O)c1snc(Cl)c1Cl [Compound I-2, isotianil]
- SEV last determ. (severity of the disease) (50 g of a.i./ha): 5.3%
- YLI last determ. (youngest infected leaf) (50 g of a.i./ha): 4
- SEV ABBOTT (50 g of a.i./ha): 72.4%
- SEV AUDPC (50 g of a.i./ha): 314
- YLI AUDPC (50 g of a.i./ha): 223
- SEV last determ. (severity of the disease) (75 g of a.i./ha): 5%
- YLI last determ. (youngest infected leaf) (75 g of a.i./ha): 4
- SEV ABBOTT (75 g of a.i./ha): 74%
- SEV AUDPC (75 g of a.i./ha): 285
- YLI AUDPC (75 g of a.i./ha): 224
- SEV last determ. (severity of the disease) (100 g of a.i./ha): 5.3%
- YLI last determ. (youngest infected leaf) (100 g of a.i./ha): 4
- SEV ABBOTT (100 g of a.i./ha): 72.6%
- SEV AUDPC (100 g of a.i./ha): 313
- YLI AUDPC (100 g of a.i./ha): 119
